± gives the expanded uncertainty stated by the source.
Assay: Molar enthalpy of transition or fusion
Conditions: Adiabatic calorimetry

## CCCCn1cc[n+](C)c1.O=[N+]([O-])[O-] [1-butyl-3-methylimidazolium nitrate]
Crystal 1
  Molar enthalpy of transition or fusion: 4.3 ± 0.0502 kcal/mol
Crystal 2
  Molar enthalpy of transition or fusion: 0.0359 ± 0.0239 kcal/mol
Crystal 3
  Molar enthalpy of transition or fusion: 0.086 ± 0.0239 kcal/mol
Crystal 4
  Molar enthalpy of transition or fusion: 0.497 ± 0.0239 kcal/mol

From the NIST ThermoML archive (doi:10.1016/j.tca.2008.05.002)
